Publication doi:10.1101/2020.08.04.236984v1 (bioRxiv, 2020)

How the values were obtained:
MDA-MB-231 cells = experiment: Membrane fluidity, fluorescence anisotropy of TMA-DPH; assay type: cell-based; details: atorvastatin 72 h
[1] = tested on: HMG-CoA reductase expression in SKBR-3 cells; details: atorvastatin at a micromolar concentration, ref [57]; cited from earlier work
SKBR-3 cells [2] = experiment: Membrane compactness, generalized polarization of Laurdan; assay type: cell-based; details: atorvastatin 72 h, 2 μM Laurdan
[3] = tested on: HMG-CoA reductase expression in MDA-MD-231 cells; details: atorvastatin at a micromolar concentration, ref [57]; cited from earlier work
SKBR-3 cells [4] = experiment: Flow cytometric measurement of penetratin uptake and endo-lysosomal release; assay type: cell-based; details: atorvastatin 100 nM and 10 μM, 72 h pre-treatment, versus control

CC(C)c1c(C(=O)Nc2ccccc2)c(-c2ccccc2)c(-c2ccc(F)cc2)n1CC[C@@H](O)C[C@@H](O)CC(=O)O [atorvastatin]
effect on membrane microviscosity (TMA-DPH anisotropy) (MDA-MB-231 cells): unexpected increase
induction of HMG-CoA reductase expression [1]: 4 fold
effect on membrane compactness (generalized polarization of Laurdan) (SKBR-3 cells [2]): decrease
change in HMG-CoA reductase enzyme expression [3]: no change
amount of penetratin leaving the endo-lysosomal compartment (SKBR-3 cells [4]): significantly higher
